Data: patent US20050148570A1, “Novel substituted alkane compounds and uses thereof” (priority 2001, published 2005)
Values after ≈ are worked out from the molar mass of the structure shown.

Assays:
[1] = system: C. diphtheriae; assay: MIC, broth dilution method; type: cell-based; conditions: for MIC: Corynebacterium diphtheriae, read-out: MIC Anti-Bacterial Activity
Protocol: (§1) Antibacterial activity can be determined by several standard methods well known by those skilled in the art, including disc diffusions methods, broth dilution minimal inhibitory concentration (MIC) methods, etc., including the detailed method outlined below. Cultures of bacteria are initially brought up from the freezer by streaking a loopful onto agar plates under the appropriate conditions. For instance stocks are streaked onto chocolate agar and then incubated for 18 hours at 35-37° C. in a 5% CO2 incubator. Five to 10 colonies are picked from the chocolate agar plate for subculture to Brain-Heart Infusion (BHI) broth or Mueller Hinton broth or BHI containing 4% serum and incubated under the appropriate conditions. The ability of the test compound to act as an antimicrobial is determined by the ability to inhibit bacterial, algae, or fungal growth in vitro. The optical density of the culture of organisms in the presence of an active compound is compared to the optical density of the same organism untreated. The activity of the compounds is described as either negative or the lowest concentration inhibiting growth.

[2] = system: E. faecalis; assay: MIC, broth dilution method; type: cell-based; conditions: for MIC: Enterococcus faecalis, read-out: MIC Anti-Bacterial Activity
Protocol: as §1

[3] = system: H. influenzae; assay: MIC, broth dilution method; type: cell-based; conditions: for MIC: Haemophilus influenzae, read-out: MIC Anti-Bacterial Activity
Protocol: as §1

[4] = system: M. catarrhalis; assay: MIC, broth dilution method; type: cell-based; conditions: for MIC: Moraxella catarrhalis, read-out: MIC Anti-Bacterial Activity
Protocol: as §1

[5] = system: M. smegimatis; assay: MIC, broth dilution method; type: cell-based; conditions: for MIC: read-out: MIC Anti-Bacterial Activity
Protocol: as §1

[6] = system: S. aureus; assay: MIC, broth dilution method; type: cell-based; conditions: for MIC: Staphylococcus aureus, read-out: Antibacterial Activity against S. aureus MIC
Protocol: as §1

[7] = system: S. epidermidis; assay: MIC, broth dilution method; type: cell-based; conditions: for MIC: Staphylococcus epidermidis, read-out: MIC Anti-Bacterial Activity
Protocol: as §1

[8] = system: S. pneumoniae; assay: MIC, broth dilution method; type: cell-based; conditions: for MIC: Streptococcus pneumoniae, read-out: MIC Anti-Bacterial Activity
Protocol: as §1

[9] = system: S. pyogenes; assay: MIC, broth dilution method; type: cell-based; conditions: for MIC: Streptococcus pyogenes, read-out: MIC Anti-Bacterial Activity
Protocol: as §1

[10] = system: H. pylori; assay: MIC, broth dilution method; type: cell-based
Protocol: as §1

[11] = system: methicillin-sensitive Staphylococcus aureus; assay: Wound healing model (FIG. 1); type: in vivo; conditions: methicillin-susceptible Staphylococcus aureus; mice; composition applied topically twice daily; sampled 72 hours post-infection
Protocol: (§2) FIG. 1. Efficacy of a composition comprising the compound of Example 9 in the wound healing model. A defined inoculum of approximately 10^5 CFU of methicillin-sensitive Staphylococcus aureus in 20 μl culture medium was pipetted into a wound approximately 1 cm^2 created by removal of the epidermis from the shaved backs of mice. After 24 hours, the composition comprising Example 9, placebo control or positive control ointment was applied twice daily. Approximately, seventy two hours post-infection, the wound was sampled and appropriate dilutions plated on nutritive agars for determination of microbial burden. The number of colony forming units (CFU) of methicillin-sensitive Staphylococcus aureus per wound is shown.
(§3) The wound healing model, using methods generally known by those skilled in the art, is used to measure the efficacy of topically applied compounds in suitable vehicles against any bacteria, for example, Staphylococcus epidermis, Staphylococcus aureus, Streptococcus pyrogenes, Haemophilus influenzae, or mixtures thereof. By removing several epidermal layers by surgical procedure, a superficial wound of approximately 1 cm^2 was created. About 10^5cfu/20 ul of culture medium of any bacteria, for example, S aureus, was applied to the wound. […]

[12] = system: methicillin-resistant Staphylococcus aureus; assay: Wound healing model (FIG. 2); type: in vivo; conditions: mice, composition applied topically twice daily, sampled 72 hours post-infection
Protocol: as §2, with “2.” for “1.”, “methicillin-resistant” for “methicillin-sensitive”
as §3

[13] = system: Staphylococcus epidermidis; assay: Wound healing model (FIG. 3); type: in vivo; conditions: mice, composition applied topically twice daily, sampled 72 hours post-infection
Protocol: as §2, with “3.” for “1.”, “epidermis” for “aureus”
as §3

SMILES	MIC [1] [µg/mL]	MIC [2] [µg/mL]	MIC [3] [µg/mL]	MIC [4] [µg/mL]	MIC [5] [µg/mL]	MIC [6] [µg/mL]	MIC [7] [µg/mL]	MIC [8] [µg/mL]	MIC [9] [µg/mL]	melting point [°C]	further results
CCCC1CC(c2ccc(O)c(C)c2)(c2ccc(O)c(C)c2)C1 [Example 1, 1,1-Bis(4-hydroxy-3-methylphenyl)-3-n-propyl-cyclobutane]	2 (≈ 6.44 µM)	3 (≈ 9.66 µM)	1 (≈ 3.22 µM)	2 (≈ 6.44 µM)	3 (≈ 9.66 µM)	1 (≈ 3.22 µM)	2 (≈ 6.44 µM)	6 (≈ 19.3 µM)	6 (≈ 19.3 µM)	130 to 132	
CCCCC1CC(c2ccc(O)c(C)c2)(c2ccc(O)c(C)c2)C1 [Example 2, 1,1-Bis(4-hydroxy-3-methylphenyl)-3-n-butyl-cyclobutane]	1 (≈ 3.08 µM)	2 (≈ 6.16 µM)	1 (≈ 3.08 µM)	1 (≈ 3.08 µM)	2 (≈ 6.16 µM)	1 (≈ 3.08 µM)	1 (≈ 3.08 µM)	6 (≈ 18.5 µM)	6 (≈ 18.5 µM)	135 to 137	MIC ([10]; Helicobacter pylori, read-out: MIC Anti-Bacterial Activity): 16 µg/mL (≈ 49.3 µM)
CCCC1CC(c2ccc(O)cc2)(c2ccc(O)cc2)C1 [Example 3, 1,1-Bis(4-hydroxyphenyl)-3-n-propyl-cyclobutane]	6 (≈ 21.2 µM)	13 (≈ 46 µM)	13 (≈ 46 µM)	3 (≈ 10.6 µM)	6 (≈ 21.2 µM)	8 (≈ 28.3 µM)	6 (≈ 21.2 µM)	6 (≈ 21.2 µM)	13 (≈ 46 µM)		
CCCC1CC(c2ccc(O)cc2)(c2ccc(O)c(Cl)c2)C1 (stereo not drawn) [Example 4, 1-(4-Hydroxyphenyl)-1-(4-hydroxy-3-chloro-phenyl)-3-n-propyl-cyclobutane]	2 (≈ 6.31 µM)	3 (≈ 9.47 µM)	6 (≈ 18.9 µM)	1 (≈ 3.16 µM)	2 (≈ 6.31 µM)	2 (≈ 6.31 µM)	2 (≈ 6.31 µM)	3 (≈ 9.47 µM)	13 (≈ 41 µM)		
CCCC1CC(c2ccc(O)c(Cl)c2)(c2ccc(O)c(Cl)c2)C1 [Example 5, 1,1-Bis(4-hydroxy-3-chloro-phenyl)-3-n-propyl-cyclobutane]	1 (≈ 2.85 µM)	2 (≈ 5.69 µM)	3 (≈ 8.54 µM)	1 (≈ 2.85 µM)	1 (≈ 2.85 µM)	1 (≈ 2.85 µM)	1 (≈ 2.85 µM)	3 (≈ 8.54 µM)	13 (≈ 37 µM)	103 to 105	
CCCCC1CC(c2ccc(O)cc2)(c2ccc(O)cc2)C1 [Example 6, 1,1-Bis(4-hydroxyphenyl)-3-n-butyl-cyclobutane]	3 (≈ 10.1 µM)	3 (≈ 10.1 µM)	13 (≈ 43.9 µM)	3 (≈ 10.1 µM)	3 (≈ 10.1 µM)	4 (≈ 13.5 µM)	3 (≈ 10.1 µM)	6 (≈ 20.2 µM)	13 (≈ 43.9 µM)		
CCCCC1CC(c2ccc(O)cc2)(c2ccc(O)c(Cl)c2)C1 (stereo not drawn) [Example 7, 1-(4-Hydroxyphenyl)-1-(4-hydroxy-3-chlorophenyl)-3-n-butyl-cyclobutane]	2 (≈ 6.04 µM)	2 (≈ 6.04 µM)	6 (≈ 18.1 µM)	1 (≈ 3.02 µM)	1 (≈ 3.02 µM)	1 (≈ 3.02 µM)	1 (≈ 3.02 µM)	3 (≈ 9.07 µM)	6 (≈ 18.1 µM)		
CCCCC1CC(c2ccc(O)c(Cl)c2)(c2ccc(O)c(Cl)c2)C1 [Example 8, 1,1-Bis(4-hydroxy-3-chloro-phenyl)-3-n-butyl-yclobutane]											MIC Anti-Bacterial Activity [1]: 1 µg/mL (≈ 2.74 µM); MIC Anti-Bacterial Activity [2]: 1 µg/mL (≈ 2.74 µM); MIC Anti-Bacterial Activity [3]: 3 µg/mL (≈ 8.21 µM); MIC Anti-Bacterial Activity [10]: 31 µg/mL (≈ 84.9 µM); MIC Anti-Bacterial Activity [4]: 1 µg/mL (≈ 2.74 µM); MIC Anti-Bacterial Activity [5]: 1 µg/mL (≈ 2.74 µM); Antibacterial Activity against S. aureus MIC ([6]; S. aureus): 0.5 µg/mL; MIC Anti-Bacterial Activity [7]: 1 µg/mL (≈ 2.74 µM); MIC Anti-Bacterial Activity [8]: 3 µg/mL (≈ 8.21 µM); MIC Anti-Bacterial Activity [9]: 13 µg/mL (≈ 35.6 µM)
CCCCCC(C)(c1ccc(O)c(C)c1)c1ccc(O)c(C)c1 [Example 9, 2,2-Bis(4-hydroxy-3-methylphenyl)heptane]					2 (≈ 6.4 µM)	1 (≈ 3.2 µM)					reducing the population levels of pathogenic bacteria in wound [11]: efficacious; reducing the population levels of pathogenic bacteria in wound [12]: efficacious; reducing the population levels of pathogenic bacteria in wound [13]: efficacious
Cc1cc(C2(c3ccc(O)c(C)c3)CC(CC(C)(C)C)C2)ccc1O [Example 12, 1,1-Di(4-hydroxy-3-methylphenyl)-3-(2,2-dimethylpropyl)cyclobutane]						1.6 (≈ 4.73 µM)				175 to 176	
CC(C)(C)CC1CC(c2ccc(O)c(Cl)c2)(c2ccc(O)c(Cl)c2)C1 [Example 24, 1,1-Di-(3-chloro-4-hydroxyphenyl)-3-(2,2-dimethylpropyl)cyclobutane]						1.6 (≈ 4.22 µM)				131 to 134	
CC(C)(C)C1CCC1(c1ccc(O)c(Cl)c1)c1ccc(O)c(Cl)c1 (stereo not drawn) [Example 25, 1,1-Di-(3-chloro-4-hydroxyphenyl)-2-(1,1-dimethylethyl)cyclobutane]						0.8 (≈ 2.19 µM)				133 to 135	
CCCCC1CC(c2ccc(O)c(CC)c2)(c2ccc(O)c(CC)c2)C1 [Example 29, 1,1-Di(3-ethyl-4-hydroxyphenyl)-3-n-butylcyclobutane]						0.8 (≈ 2.27 µM)				135 to 138	
CCCCC1CC(c2cc(C)c(O)c(C)c2)(c2cc(C)c(O)c(C)c2)C1 [Example 30, 1,1-Di(3,5-dimethyl-4-hydroxyphenyl)-3-n-butylcyclobutane]						0.8 (≈ 2.27 µM)				138 to 141	
CCCCCC1CC(c2ccc(O)c(CC)c2)(c2ccc(O)c(CC)c2)C1 [Example 31, 1,1-Di(3-ethyl-4-hydroxyphenyl)-3-n-pentylcyclobutane]						1.6 (≈ 4.37 µM)				109 to 111	
CCCCCC1CC(c2cc(C)c(O)c(C)c2)(c2cc(C)c(O)c(C)c2)C1 [Example 32, 1,1-Di(3,5-dimethyl-4-hydroxyphenyl)-3-n-pentylcyclobutane]						1.6 (≈ 4.37 µM)				115 to 117	
